Reference: ChEMBL document CHEMBL5126623, “Dual Targeting of Steroid Sulfatase and 17β-Hydroxysteroid Dehydrogenase Type 1 by a Novel Drug-Prodrug Approach: A Potential Therapeutic Option for the Treatment of Endometriosis” (J Med Chem, 2022)

Columns and labels:
[1] = Metabolic stability in mouse liver S9 fraction assessed as intrinsic clearance at 1 uM in presence of NADPH measured upto 60 min by LC-MS/MS analysis; assay type: ADME, subcellular; settings: s9, 1 h
[2] = Metabolic stability in human liver S9 fraction assessed as intrinsic clearance at 1 uM in presence of NADPH measured upto 60 min by LC-MS/MS analysis; assay type: ADME, subcellular; settings: s9, 1 h
Steryl-sulfatase [3] = target: T1, Steryl-sulfatase (Homo sapiens, UniProt P08842); test: Inhibition of STS in human T47D cells using [3H]E1S as substrate measured after 24 hrs by HPLC analysis; assay type: cell-based
T1 sequence (P08842 whole entry): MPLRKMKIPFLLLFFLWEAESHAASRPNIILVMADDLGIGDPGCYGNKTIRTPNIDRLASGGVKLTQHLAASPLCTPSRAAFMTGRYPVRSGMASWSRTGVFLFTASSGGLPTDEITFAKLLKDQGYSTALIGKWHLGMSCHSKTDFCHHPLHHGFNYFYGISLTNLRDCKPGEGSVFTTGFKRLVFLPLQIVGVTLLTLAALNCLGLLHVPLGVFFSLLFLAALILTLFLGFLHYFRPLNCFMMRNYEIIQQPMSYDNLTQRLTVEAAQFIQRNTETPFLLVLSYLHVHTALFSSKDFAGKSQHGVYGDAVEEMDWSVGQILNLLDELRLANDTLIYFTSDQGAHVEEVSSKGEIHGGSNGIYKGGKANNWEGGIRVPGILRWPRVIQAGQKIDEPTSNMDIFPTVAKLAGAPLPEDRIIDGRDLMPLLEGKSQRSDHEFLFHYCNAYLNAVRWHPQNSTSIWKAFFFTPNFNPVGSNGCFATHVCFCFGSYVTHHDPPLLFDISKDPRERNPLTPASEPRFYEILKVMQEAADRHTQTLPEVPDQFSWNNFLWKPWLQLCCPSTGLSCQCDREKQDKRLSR

[4] = Metabolic stability in human liver S9 fraction assessed as half life at 1 uM in presence of NADPH measured upto 60 min by LC-MS/MS analysis; assay type: ADME, subcellular
Steryl-sulfatase [5] = target: T1, Steryl-sulfatase; test: Irreversible inhibition of STS in human T47D cells using [3H]E1S as substrate measured after 24 hrs by HPLC analysis; assay type: cell-based
[6] = Cytotoxicity against human HEK293 cells assessed as cell growth inhibition at 20 uM measured at 48 hrs bt MTT assay relative to control; assay type: toxicity, cell-based
[7] = Metabolic stability in mouse liver S9 fraction assessed as half life at 1 uM in presence of NADPH measured upto 60 min by LC-MS/MS analysis; assay type: ADME, subcellular
Homo sapiens = organism: Homo sapiens; test: Selectivity ratio of IC50 for human placental microsomal fraction 17beta-HSD2 to IC50 for human placental cytosolic fraction 17beta-HSD1
[8] = target: T2, 17-beta-hydroxysteroid dehydrogenase type 2 (Homo sapiens, UniProt P37059); test: Inhibition of human placental microsomal fraction 17beta-HS2 using [3H]-E2 as substrate in presence of NAD+ measured after 10 mins by HPLC method; assay type: subcellular, Placenta, Microsome
T2 sequence (P37059 whole entry): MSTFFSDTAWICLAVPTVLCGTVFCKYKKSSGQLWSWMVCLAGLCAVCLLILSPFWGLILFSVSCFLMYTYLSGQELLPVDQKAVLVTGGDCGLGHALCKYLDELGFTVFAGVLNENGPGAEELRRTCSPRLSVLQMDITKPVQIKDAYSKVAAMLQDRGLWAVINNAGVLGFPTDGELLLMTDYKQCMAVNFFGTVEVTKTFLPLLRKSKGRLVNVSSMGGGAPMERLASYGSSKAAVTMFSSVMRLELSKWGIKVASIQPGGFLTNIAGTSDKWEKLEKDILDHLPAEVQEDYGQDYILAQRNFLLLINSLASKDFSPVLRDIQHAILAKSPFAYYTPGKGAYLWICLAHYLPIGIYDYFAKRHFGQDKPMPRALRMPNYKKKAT

[9] = target: T3, 17-beta-hydroxysteroid dehydrogenase type 1 (Homo sapiens, UniProt P14061); test: Inhibition of human placental cytosolic fraction 17beta-HSD1 using [3H]-E1 as substrate in presence of NADH measured after 10 mins by HPLC method; assay type: subcellular, Placenta, Cytosol
T3 sequence (P14061 whole entry): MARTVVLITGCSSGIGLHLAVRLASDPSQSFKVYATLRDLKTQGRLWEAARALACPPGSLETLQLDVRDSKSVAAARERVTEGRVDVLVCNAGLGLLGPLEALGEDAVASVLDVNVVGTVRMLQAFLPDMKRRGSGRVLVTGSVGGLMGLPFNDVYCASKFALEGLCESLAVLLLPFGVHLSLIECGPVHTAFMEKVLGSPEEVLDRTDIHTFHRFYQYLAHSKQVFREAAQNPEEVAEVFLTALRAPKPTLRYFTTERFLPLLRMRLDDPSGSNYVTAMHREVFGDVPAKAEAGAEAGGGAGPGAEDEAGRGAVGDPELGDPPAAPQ

[10] = target: T3, 17-beta-hydroxysteroid dehydrogenase type 1; test: Inhibition of 17beta-HSD1 in human T47D cells using [3H]E1S as substrate measured after 24 hrs by HPLC analysis; assay type: cell-based
[11] = Stability of compound in phosphate buffer measured after 24 hrs by LC-MS/MS analysis; assay type: physicochemical; settings: read-out: Stability
[12] = Stability in human T47D cells cultured in DMEM medium measured after 24 hrs by LC-MS/MS analysis; assay type: ADME, cell-based; settings: read-out: Stability
[13] = target: T4, 17-beta-hydroxysteroid dehydrogenase type 1 (Homo sapiens) (UniProt P14061); settings: dose 50.0 nM, time 6.5 hrs
T4 sequence (whole entry): T3 sequence (P14061 whole entry)
Description: Inhibition of human placental cytosolic fraction 17beta-HSD1 at 50 nM using [3H]-E1 as substrate in presence of NADH measured after 6.5 hrs by LC-MS/MS method

[14] = target: T4, 17-beta-hydroxysteroid dehydrogenase type 1 (Homo sapiens); test: Inhibition of human 17beta-HSD1 at 50 nM using [3H]-E1 as substrate measured after 13.5 hrs in presence of NADH by LC-MS/MS analysis
[15] = target: T4, 17-beta-hydroxysteroid dehydrogenase type 1 (Homo sapiens); settings: dose 50.0 nM, time 24.0 hrs

IC50 (Steryl-sulfatase [3]) | Ratio IC50 (Homo sapiens) | IC50 [8] | IC50 [9] | IC50 [10] | Structure (SMILES) | further results
63 nM |  |  |  |  | Cc1ccccc1N(C)C(=O)c1csc(-c2ccc(OS(N)(=O)=O)cc2)n1 | intrinsic clearance [1]: 46 µL/min/mg; intrinsic clearance [2]: 14 µL/min/mg; half-life at 1 µM [4]: 50 min; IC50 (Steryl-sulfatase [5]): 60 nM; half-life at 1 µM [7]: 15 min
 | 115 | 3900 nM | 34 nM | 12 nM | Cc1ccccc1N(C)C(=O)c1csc(-c2ccc(O)cc2)n1 | 
 | 150 |  |  | 8.6 nM | Cc1cc(-c2ccc(C(=O)N(C)c3ccccc3C)o2)ccc1O | 
 | > 5.2 | > 10000 nM | 1900 nM | 1900 nM | Cc1ccccc1N(C)C(=O)c1ccc(-c2ccccc2O)o1 | 
 | 42 |  |  | 10 nM | Cc1ccccc1N(C)C(=O)c1ccc(-c2ccc(O)cc2F)o1 | 
 | > 3 | > 10000 nM | 3300 nM | 1100 nM | Cc1cccnc1N(C)C(=O)c1ccc(-c2ccc(O)cc2)o1 | 
 | 7.5 | 4500 nM | 600 nM | 340 nM | Cc1ccccc1N(C)C(=O)c1cnc(-c2ccc(O)cc2)s1 | 
 | > 77 | > 20000 nM | 260 nM | 64 nM | Cc1ccncc1N(C)C(=O)c1ccc(-c2ccc(O)cc2)o1 | 
 | 74 |  |  | 52 nM | Cc1ccccc1N(C)C(=O)c1ccc(-c2ccc(O)c(Cl)c2)o1 | inhibition at 48 h, 20 µM [6]: 55%
 | 13 |  |  | 14 nM | Cc1ccccc1N(C)C(=O)c1ccc(-c2ccc(O)cc2Cl)o1 | 
 | > 40 | > 10000 nM | 250 nM | 110 nM | Cc1ccccc1N(C)C(=O)c1coc(-c2ccc(O)cc2)n1 | 
 | 54 | 2200 nM | 41 nM | 12 nM | Cc1ccc(F)cc1N(C)C(=O)c1ccc(-c2ccc(O)cc2)o1 | 
 | 19 | 2800 nM | 150 nM | 29 nM | Cc1ccccc1N(C)C(=O)c1ccc(-c2cccc(O)c2)o1 | 
60 nM |  |  |  |  | Cc1ccccc1N(C)C(=O)c1coc(-c2ccc(OS(N)(=O)=O)cc2)n1 | intrinsic clearance [1]: 15 µL/min/mg; intrinsic clearance [2]: 3.9 µL/min/mg; half-life at 1 µM [4]: 180 min; IC50 (Steryl-sulfatase [5]): 68 nM; half-life at 1 µM [7]: 47 min
 | 13 | 6200 nM | 490 nM | 320 nM | Cc1ccccc1N(C)C(=O)c1nnc(-c2ccc(O)cc2)o1 | 
 | 85 |  | 11 nM | 10 nM | Cc1ccccc1N(C)C(=O)c1ccc(-c2ccc(O)c(F)c2)o1 | 
 | 51 |  |  | 21 nM | Cc1ccccc1N(C)C(=O)c1ccc(-c2ccc(O)cc2)o1 | inhibition [14]: 50%; inhibition [15]: < 60%
 | 74 | 1700 nM | 23 nM | 7.6 nM | Cc1cc(F)ccc1N(C)C(=O)c1ccc(-c2ccc(O)cc2)o1 | 
130 nM |  |  |  |  | Cc1ccccc1N(C)C(=O)c1cnc(-c2ccc(OS(N)(=O)=O)cc2)s1 | 
 | 23 | 3900 nM | 170 nM | 50 nM | Cc1c(F)cccc1N(C)C(=O)c1ccc(-c2ccc(O)cc2)o1 | 
 | > 190 | > 30000 nM | 160 nM | 43 nM | Cc1ncccc1N(C)C(=O)c1ccc(-c2ccc(O)cc2)o1 | 

The next lines start with the compound.

Structure (SMILES) | IC50 (Steryl-sulfatase [3]) | Ratio IC50 (Homo sapiens) | IC50 [8] | IC50 [9] | IC50 [10] | further results
Cc1ccccc1N(C)C(=O)c1ccc(-c2ccc(OS(N)(=O)=O)c(Cl)c2)o1 | 25 nM |  |  |  |  | intrinsic clearance [1]: 24 µL/min/mg; intrinsic clearance [2]: 15 µL/min/mg; half-life at 1 µM [4]: 48 min; IC50 (Steryl-sulfatase [5]): 27 nM; inhibition at 48 h, 20 µM [6]: 55%; half-life at 1 µM [7]: 31 min
Cc1cccc(F)c1N(C)C(=O)c1ccc(-c2ccc(O)cc2)o1 |  | 10 | 3200 nM | 310 nM | 120 nM | 
Cc1cc(-c2ccc(C(=O)N(C)c3ccccc3C)o2)ccc1OS(N)(=O)=O | 570 nM |  |  |  |  | 
Cc1ccccc1N(C)C(=O)c1ccc(-c2cccc(OS(N)(=O)=O)c2)o1 | 690 nM |  |  |  |  | 
Cc1ccccc1N(C)C(=O)c1ccc(-c2ccc(OS(N)(=O)=O)cc2F)o1 | 12 nM |  |  |  |  | intrinsic clearance [1]: 38 µL/min/mg; intrinsic clearance [2]: 14 µL/min/mg; half-life at 1 µM [4]: 51 min; IC50 (Steryl-sulfatase [5]): 16 nM; half-life at 1 µM [7]: 23 min
Cc1ncccc1N(C)C(=O)c1ccc(-c2ccc(OS(N)(=O)=O)cc2)o1 | 270 nM |  |  |  |  | 
Cc1ccccc1N(C)C(=O)c1nnc(-c2ccc(OS(N)(=O)=O)cc2)o1 | 1100 nM |  |  |  |  | 
Cc1ccc(F)cc1N(C)C(=O)c1ccc(-c2ccc(OS(N)(=O)=O)cc2)o1 | 40 nM |  |  |  |  | intrinsic clearance [1]: 180 µL/min/mg; intrinsic clearance [2]: 21 µL/min/mg; half-life at 1 µM [4]: 34 min; half-life at 1 µM [7]: 3.9 min
Cc1ccccc1N(C)C(=O)c1ccc(-c2ccc(OS(N)(=O)=O)cc2)o1 | 28 nM |  |  |  |  | intrinsic clearance [1]: 31 µL/min/mg; intrinsic clearance [2]: 15 µL/min/mg; remaining at 24 h [11]: 40%; remaining at 24 h [12]: 94%; half-life at 1 µM [4]: 47 min; IC50 (Steryl-sulfatase [5]): 31 nM; inhibition at 48 h, 20 µM [6]: 11.7%; half-life at 1 µM [7]: 25 min; inhibition [13]: 50%
O=c1ccc2ccc(O)cc2o1 [UMBELLIFERONE] |  |  |  |  |  | intrinsic clearance [1]: 280 µL/min/mg; intrinsic clearance [2]: 140 µL/min/mg
Cc1ccncc1N(C)C(=O)c1ccc(-c2ccc(OS(N)(=O)=O)cc2)o1 | 820 nM |  |  |  |  | 
Cc1cccnc1N(C)C(=O)c1ccc(-c2ccc(OS(N)(=O)=O)cc2)o1 | 1100 nM |  |  |  |  | 
Cc1c(F)cccc1N(C)C(=O)c1ccc(-c2ccc(OS(N)(=O)=O)cc2)o1 | 27 nM |  |  |  |  | intrinsic clearance [1]: 150 µL/min/mg; intrinsic clearance [2]: 29 µL/min/mg; half-life at 1 µM [4]: 21 min; IC50 (Steryl-sulfatase [5]): 25 nM; half-life at 1 µM [7]: 4.8 min
Cc1ccccc1N(C)C(=O)c1ccc(-c2ccc(OS(N)(=O)=O)c(F)c2)o1 | 17 nM |  |  |  |  | intrinsic clearance [1]: 140 µL/min/mg; intrinsic clearance [2]: 16 µL/min/mg; half-life at 1 µM [4]: 43 min; IC50 (Steryl-sulfatase [5]): 17 nM; half-life at 1 µM [7]: 6.1 min
Cc1cc(F)ccc1N(C)C(=O)c1ccc(-c2ccc(OS(N)(=O)=O)cc2)o1 | 14 nM |  |  |  |  | intrinsic clearance [1]: 150 µL/min/mg; intrinsic clearance [2]: 16 µL/min/mg; half-life at 1 µM [4]: 44 min; IC50 (Steryl-sulfatase [5]): 15 nM; half-life at 1 µM [7]: 4.6 min
Cc1cccc(F)c1N(C)C(=O)c1ccc(-c2ccc(OS(N)(=O)=O)cc2)o1 | 150 nM |  |  |  |  | 
Cc1ccccc1N(C)C(=O)c1ccc(-c2ccc(OS(N)(=O)=O)cc2Cl)o1 | 27 nM |  |  |  |  | intrinsic clearance [1]: 39 µL/min/mg; intrinsic clearance [2]: 18 µL/min/mg; half-life at 1 µM [4]: 39 min; IC50 (Steryl-sulfatase [5]): 29 nM; inhibition at 48 h, 20 µM [6]: 11.7%; half-life at 1 µM [7]: 20 min
NS(=O)(=O)Oc1ccc2c3c(c(=O)oc2c1)CCCCC3 [IROSUSTAT] |  |  |  |  |  | half-life at 1 µM [7]: 3 min
